Marks after values point to notes of the source that are not given here.
Legend:
[1] = test system: male ICR mice; experiment: Motor activity in mice not pretreated with reserpine (open-field test); format: in vivo, mouse; details: 50 mg/kg p.o.
Method: We used male ICR mice six to seven weeks old (25 - 30 g) provided by the bioterium of the Departamento de Farmacia, Facultad de Ciencias, at Universidad Nacional de Colombia. The animals were kept under standard laboratory conditions, 12-hour light-dark cycles, and at room temperature (22 ± 1°C) with food and water available ad libitum.
The open field was a square arena divided into 16 squares with surrounding walls to prevent escape. Animals were placed individually in the middle of the open field and the specific parameter evaluated was the number of cadres traversed during 5 minutes. The open field was cleaned with a water-alcohol (10%) solution before placing the next animal to eliminate possible bias due to odors left by previous subjects.

[2] = test system: male ICR mice; experiment: Reserpine model, reversal of hypokinesia (open-field test); format: in vivo, mouse; details: reserpine 3 mg/kg i.p., 100 mg/kg p.o.
Method: (§2) In the reserpine model and l-dopa/carbidopa assays, the locomotor activity was evaluated in the open-field test. The open field was a square arena divided into 16 squares with surrounding walls to prevent escape. Animals were placed individually in the middle of the open field and the specific parameter evaluated was the number of cadres traversed during 5 minutes. The open field was cleaned with a water-alcohol (10%) solution before placing the next animal to eliminate possible bias due to odors left by previous subjects.
The vehicle was a mixture of 15% propylene glycol, 15% glycerol, and enough distilled water to make up 100%. Locomotor activity was evaluated at 2 and 24 h after reserpine administration.

[3] = test system: male ICR mice; experiment: L-dopa/carbidopa plus MAO-B inhibitors in mice pretreated with reserpine (open-field test); format: in vivo, mouse; details: reserpine 3 mg/kg i.p., FCS005 100 mg/kg p.o. plus L-dopa:carbidopa 100:10 mg/kg i.p.
Method: as §2
Levodopa plus carbidopa were administrated i.p. 30 min later. Locomotor activity was evaluated at 2 and 24 h after the administration of reserpine.

[4] = test system: male ICR mice; experiment: Haloperidol-induced catalepsy, horizontal bar test; format: in vivo, mouse; details: FCS005 100 mg/kg p.o.
Method: Haloperidol was administered to the animals to induce rigidity and akinesia (catalepsy) [25]^,[26]. Catalepsy was defined as the prolonged maintenance of both forepaws in an atypical position on a horizontal bar.
The animals received haloperidol (3 mg/kg) i.p.; FCS005 (100 mg/kg, p.o.), levodopa:carbidopa (400 mg/kg:40 mg/kg; p.o.) or vehicle (p.o) was administrated 30 min before. The reversal of catalepsy was evaluated for 2 min 60 min after the administration of the treatments.

[5] = test system: brain homogenates of mice; experiment: Ex vivo lipid peroxidation (TBARS) in brain homogenates of haloperidol-treated mice; set-up: species or system mouse; details: 10 days, FCS005 50 mg/kg p.o., levodopa:carbidopa 400:40 mg/kg p.o., haloperidol 1 mg/kg i.p., compared to control animals
Method: (§1) Antioxidant activity was evaluated ex vivo. Mice were administered daily for 10 days with the treatments FCS005 (50 mg/kg, p.o.), levodopa:carbidopa (400 mg/kg:40 mg/kg, p.o.) or vehicle (p.o.) followed by haloperidol (1 mg/kg, i.p.) 30 min later. Then, the animals were killed by decapitation and the brains were removed, washed in 1% KCl, dissected on an ice-cold plate, and homogenized in 50 mM Tris-HCl buffer (pH 7.4). Homogenates were centrifuged (10,000 rpm for 10 min at 4°C). The final supernatant was stored at -20°C. The protein content of each sample was determined by the Bradford method.
The index of lipid peroxidation was evaluated following the protocol described by Hijova, et al.[27]. The brain homogenate (450 µL), 1 mL trichloroacetic acid (10%), and 50 µL of 50 mM phosphate buffer (pH 7.4) were centrifuged at 1850 xg for 10 min at 4°C; then, 1 mL of thiobarbituric acid (0.67%) was added to 1 mL of the supernatant. This mixture was heated to 92°C for 30 min and then cooled in an ice bath (4°C) before the absorbance was measured at 532 nm. The results were expressed as thiobarbituric acid reactive substances (TBARS) in mmol/mL/mg of tissue protein.

[6] = test system: brain homogenates of mice; experiment: Ex vivo protein carbonyl groups in brain homogenates of haloperidol-treated mice; set-up: species or system mouse; details: 10 days, FCS005 50 mg/kg p.o., levodopa:carbidopa 400:40 mg/kg p.o., haloperidol 1 mg/kg i.p., compared to control animals
Method: as §1
Quantification of protein carbonyl groups was determined by the technique of Levine, et al.[28], following the protocol described by Baltacioglu, et al.[29]. Briefly, 250 µL of 10 mM 2,4-dinitrophenylhydrazine (DNPH) or 250 µL of 2 M HCl were added to the brain homogenate (50 µL) for the sample or the blank, respectively. The samples were left at room temperature in the dark for 1 h and vigorously stirred every 15 min. Then, 500 µL of trichloroacetic acid (20%) was added. The samples were kept in an ice bath for 15 min and then centrifuged at 11,000 rpm for 5 min. […] The absorbance was determined at 360 nm. The content of carbonyl groups was calculated based on the molar extinction coefficient of DNPH (ε = 22 000 cm-1M-1) and expressed as nmol/mg protein [29].

[7] = target: T1, recombinant hMAO-A (Homo sapiens, UniProt P21397); experiment: hMAO-A inhibitory activity (Amplex Red MAO kit)
T1 sequence (P21397 1-527): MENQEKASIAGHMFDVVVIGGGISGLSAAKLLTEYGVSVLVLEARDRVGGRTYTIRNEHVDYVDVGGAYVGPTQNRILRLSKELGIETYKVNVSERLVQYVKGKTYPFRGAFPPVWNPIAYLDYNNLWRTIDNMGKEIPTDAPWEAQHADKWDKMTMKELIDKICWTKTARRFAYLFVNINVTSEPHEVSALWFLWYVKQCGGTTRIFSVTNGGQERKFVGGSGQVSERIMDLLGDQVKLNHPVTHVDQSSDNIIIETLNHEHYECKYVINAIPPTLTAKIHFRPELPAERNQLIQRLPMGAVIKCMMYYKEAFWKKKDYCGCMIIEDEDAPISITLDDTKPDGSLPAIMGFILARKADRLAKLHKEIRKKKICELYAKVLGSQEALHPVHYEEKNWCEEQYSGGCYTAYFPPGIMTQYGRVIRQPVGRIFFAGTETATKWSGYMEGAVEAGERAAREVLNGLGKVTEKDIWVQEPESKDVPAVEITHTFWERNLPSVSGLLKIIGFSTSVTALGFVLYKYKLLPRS
Method: (§3) In the control experiments, the test drugs were replaced with dilutions of the vehicles. In addition, the specific fluorescence emission was calculated after subtraction of the background activity, which was determined from wells containing all components except the hMAO isoforms that were replaced by a sodium phosphate buffer solution.

[8] = target: T2, recombinant hMAO-B (Homo sapiens, UniProt P27338); experiment: hMAO-B inhibitory activity (Amplex Red MAO kit)
T2 sequence (P27338 1-520): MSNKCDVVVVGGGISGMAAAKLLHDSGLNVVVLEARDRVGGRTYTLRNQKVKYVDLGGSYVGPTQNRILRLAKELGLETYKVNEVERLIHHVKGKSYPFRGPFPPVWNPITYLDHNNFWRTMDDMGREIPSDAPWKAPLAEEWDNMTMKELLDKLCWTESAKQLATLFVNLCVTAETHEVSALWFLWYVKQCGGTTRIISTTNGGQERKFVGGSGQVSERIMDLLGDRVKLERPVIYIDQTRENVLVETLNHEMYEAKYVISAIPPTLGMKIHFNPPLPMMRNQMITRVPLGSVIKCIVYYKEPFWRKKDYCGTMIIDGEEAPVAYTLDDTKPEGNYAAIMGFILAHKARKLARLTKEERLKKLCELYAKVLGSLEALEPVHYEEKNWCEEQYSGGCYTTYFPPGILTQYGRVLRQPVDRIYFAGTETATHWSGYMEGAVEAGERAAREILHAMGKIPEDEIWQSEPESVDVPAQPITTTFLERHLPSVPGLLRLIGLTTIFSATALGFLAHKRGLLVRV
Method: as §3

[9] = test system: MAO activities in rat brain mitochondria; set-up: method as in PMID 11169165; details: in vitro; cited from earlier work

Row | Structure (SMILES) | Locomotor activity (number of cadres traversed in 5 min) ([1]; at 2 hours, p: 0.023 vs control) | Locomotor activity (number of cadres traversed in 5 min) ([1]; at 24 hours, p: 0.003 vs control) | Reversal of hypokinesia produced by reserpine (number of cadres traversed) ([2]; 2 h after reserpine, p: 0.007 vs control) | Reversal of hypokinesia produced by reserpine (number of cadres traversed) ([2]; 24 h after reserpine, p: 0.002 vs control) | Number of cadres traversed ([3]; 2 h after reserpine, p: 0.038 vs control) | Number of cadres traversed ([3]; 24 h after reserpine, p: 0.018 vs control) | Total catalepsy time ([4]; haloperidol 3 mg/kg i.p., levodopa:carbidopa 400:40 mg/kg p.o., at 60 min, p: 0.001) | Cataleptic effects of the treatment itself ([4]; horizontal bar test) | Lipid peroxidation levels (TBARS) [5] | Protein carbonyl groups [6] | IC50 [7] [µM] | Inhibition of MAO-A isoform activity ([7]; at the highest concentration tested (100 µM)) | IC50 [8] [µM] | Selectivity of MAO inhibition ([8]; MAO-B vs MAO-A) | Selectivity index [IC50 (hMAO-A)]/[IC50 (hMAO-B)] ([8]; hMAO-B selectivity ratio, for FCS005 hMAO-A IC50 assumed to be 100 µM (highest concentration tested)) | Inhibitory actions on MAO activities, isoform preference [9]
1 | Cc1coc2cc3oc(=O)ccc3cc12 [FCS005, 3-methyl-7H-furo[3,2-g]chromen-7-one] | significant decrease in the locomotor activity | significant decrease in the locomotor activity | reversal of hypokinesia | reversal of hypokinesia | increased the number of cadres traversed | increased the number of cadres traversed | significant decrease in the total catalepsy time | did not show any cataleptic effects | lower | lower | > 100 | did not inhibit MAO-A isoform activity | 41.6 ± 2.79 | selective inhibitory activity towards MAO-B | > 2.4^c | –
2 | O=c1ccc2cc3ccoc3cc2o1 [Psoralen] | – | – | – | – | – | – | – | – | – | – | – | – | – | – | – | preferentially inhibiting MAO-A activity over MAO-B activity
